From ChEMBL document CHEMBL6127081, “Peptide inhibitors targeting Ras and Ras-associated protein-protein interactions” (Eur J Med Chem, 2024) come the findings set out here.

For assay [1], the system named is NCI-H358. Nature of the assay: Cytotoxicity against human NCI-H358 cells measured after 48 hrs by CCK-8 method. The class given is functional, cell-based. Conditions: NCI-H358, 48 h. (Tetrazolium dyes change colour on reduction, which living cells bring about.)
The test system of assay [2] is NCI-H358. Nature of the assay: Cytotoxicity against human NCI-H358 cells measured after 72 hrs by CCK-8 method. The class given is functional, cell-based. Conditions: NCI-H358, 72 h.
For assay [3], the system named is NCI-H358. Kind of assay: Cytotoxicity against human NCI-H358 cells measured after 24 hrs by CCK-8 method. Type of assay: functional, cell-based. As to conditions: NCI-H358, 24 h.
For assay [4], the target named is T1, GTPase KRas (Homo sapiens, UniProt P01116, G12C). Kind of assay: Binding affinity to KRas G12C mutant (unknown origin) assessed as dissociation constant by biolayer interferometry assay. A general note: Biolayer interferometry detects binding as a change in optical thickness at a sensor tip.
The subject of assay [5] is NCI-H358. Kind of assay: Cytotoxicity against human NCI-H358 cells measured after 36 hrs by CCK-8 method. Type of assay: functional, cell-based. Conditions: NCI-H358, 36 h.
In assay [6] the target is T2, GTPase KRas (Homo sapiens, UniProt P01116, G12V). Kind of assay: Binding affinity to KRas G12V mutant (unknown origin) assessed as apparent dissociation constant by fluorescence anisotropy analysis. Conditions: read-out: Kd(app).
In assay [7] the target is Epidermal growth factor receptor (Homo sapiens) (UniProt P00533). Nature of the assay: Inhibition of EGFR in human NCI-H1299 cells assessed as inhibition in MEK phosphorylation relative to control. The class given is cell-based. As to conditions: concentration not given here.
Assay [8] shares this target. Nature of the assay: Inhibition of EGFR in human NCI-H1299 cells assessed as inhibition in Akt phosphorylation relative to control. The class given is cell-based. Conditions: concentration not given here.
Assay [9] in a line: Binding affinity to GDP bound RAF (unknown origin) assessed as dissociation constant. Further details: species or system Homo sapiens.
For assay [10], the target named is T3, GTPase KRas (Homo sapiens, UniProt P01116). Kind of assay: Binding affinity to KRas (unknown origin) assessed as apparent dissociation constant by fluorescence anisotropy analysis. As to conditions: read-out: Kd(app).
The target of a further assay is GTPase KRas/RAF1 (Homo sapiens, UniProt P01116). Kind of assay: Inhibition of KRAS/RAF interaction (unknown origin). The class given is protein assay.
Assay [11] has as its target T1, GTPase KRas. Kind of assay: Inhibition of KRas G12C mutant (unknown origin) by fluorescence polarization assay. A general note: Polarisation of emitted light reports the rotation of a fluorescent probe.
Assay [12] deals with GTPase KRas (Homo sapiens, UniProt P01116, G12D). Kind of assay: Inhibition of KRas G12D mutant (unknown origin) by fluorescence polarization assay.
The target in assay [13] is T2, GTPase KRas. Kind of assay: Inhibition of KRas G12V mutant (unknown origin) by fluorescence polarization assay.
The nature of assay [14]: Inhibition of KRas Q61H mutant (unknown origin) by fluorescence polarization assay. The arrangement: species or system Homo sapiens.
The target of assay [15] is GTPase KRas (Homo sapiens, UniProt P01116, G12S). Nature of the assay: Inhibition of KRas G12S mutant (unknown origin) by fluorescence polarization assay.
Assay [16] concerns the target T3, GTPase KRas. Nature of the assay: Inhibition of recombinant wild-type KRas (unknown origin) by fluorescence polarization assay.
For assay [17], the target named is T4, SOS1-KRAS (Homo sapiens, UniProt P01116). Nature of the assay: Binding affinity to his-tagged N-terminal KRas (1 to 166 residues)/his-tagged catalytic domain SOS (564 to 1049 residues) (unknown origin) interaction extracted from Escherichia coli (BL21) assessed as dissociation constant by fluorescence polarization assay. The class given is protein-complex assay.

In assay [18] the target is T4, SOS1-KRAS. Kind of assay: Inhibition of his-tagged N-terminal GDP-bound KRas (1 to 166 residues)/his-tagged catalytic domain SOS (564 to 1049 residues) (unknown origin) interaction extracted from Escherichia coli (BL21) by fluorescence based spectroflurometric analysis. The class given is protein-complex assay.
For assay [19], the target named is T4, SOS1-KRAS. Kind of assay: Binding affinity to his-tagged N-terminal GDP-bound KRas (1 to 166 residues)/his-tagged catalytic domain SOS (564 to 1049 residues) (unknown origin) interaction extracted from Escherichia coli (BL21) assessed as dissociation constant by fluorescence polarization assay. The class given is protein-complex assay.
Assay [20] has as its target SOS1-KRAS (Homo sapiens, UniProt P01116, G12D). Kind of assay: Inhibition of KRAS G12D mutant/SOS1 (unknown origin) interaction by TR-FRET assay. Type of assay: protein-complex assay.
Assay [21] concerns the target T5, GTPase HRas (Homo sapiens, UniProt P01112). Nature of the assay: Binding affinity to HRas (unknown origin) assessed as dissociation constant.
Assay [22] concerns the target T3, GTPase KRas. Nature of the assay: Binding affinity to KRas (unknown origin) assessed as dissociation constant.
Assay [23] concerns the target T5, GTPase HRas. Kind of assay: Binding affinity to wild-type H-Ras (unknown origin) assessed as dissociation constant by fluorescence polarization assay.

Each structure is given as a SMILES string. Where a SMILES comes first, the peptide text is derived from it. Bridges are numbered along the chain shown (N, C = ends). [ ]: non-standard residue; d: D form. hArg = N=C(N)NCCCC[C@H](N)C(=O)O; S5 = C=CCCC[C@](C)(N)C(=O)O

In general, IC50 refers to the concentration that inhibits the measured activity by half. With `CC[C@H](C)[C@H](NC(=O)CNC(=O)[C@H](Cc1ccccc1)NC(C)=O)C(=O)N[C@@]1(C)CCC/C=C\CCC[C@@](C)(C(=O)N[C@@H](CC(C)C)C(=O)N[C@@H](CCCCN)C(=O)N[C@H](C(N)=O)[C@@H](C)O)NC(=O)[C@H](CC(N)=O)NC(=O)[C@H]([C@@H](C)O)NC(=O)[C@H](CC(C)C)NC1=O` (Ac-FGI[S5]LTN[S5]LKT-NH2; staple (Z) 4-8), the IC50 in the assay with NCI-H358 [1] is 5.75 µM; in the assay with NCI-H358 [2], 6.68 µM; in the assay on NCI-H358 [3] it was 15.7 µM; with NCI-H358 [5] it was 7.55 µM. The Kd at GTPase KRas [4] turned out to be 7.67 µM.

For orientation: inhibition means the drop in the measured response relative to a control, in per cent. Consider `CC[C@H](C)[C@@H]1NC(=O)[C@H](Cc2cn(CCc3c(C)[nH]c4cc(Cl)cc(Cl)c34)nn2)NC(=O)[C@H](CC(N)=O)NC(=O)[C@H](CCCNC(=N)N)NC(=O)[C@H](Cc2ccccc2)NC(=O)[C@H](CC(C)C)NC(=O)[C@H](C)NC(=O)c2cc3cc(c2)C(=O)NC[C@@H](C(N)=O)NC(=O)[C@H](CCCNC(=N)N)NC(=O)[C@H](CCCNC(=N)N)NC(=O)[C@H](CCCNC(=N)N)NC(=O)[C@H](CCCNC(=N)N)NC(=O)[C@H](Cc2ccc4ccccc4c2)NC(=O)[C@H](Cc2ccccc2)NC(=O)[C@H](CCCCNC3=O)NC1=O`, for which the values for the Kd (on GTPase KRas [6]; in assay [9]; at GTPase KRas [10]) were 17 µM, 0.37 µM and 0.21 µM, respectively. The inhibition amounted to 50% in [7] and 60% in assay [8]. The IC50 against GTPase KRas/RAF1 was found to be 3.4 µM.

In the case of `CC[C@H](C)[C@H](NC(=O)CNC(=O)[C@H](Cc1ccccc1)NC(=O)[C@H](Cc1ccccc1)NC(=O)[C@H](CCCNC(=N)N)NC(=O)[C@H](CCCNC(=N)N)NC(C)=O)C(=O)N[C@@]1(C)CCC/C=C\CCC[C@@](C)(C(=O)N[C@@H](CC(C)C)C(=O)N[C@@H](CCCCN)C(=O)N[C@H](C(=O)N[C@@H](CCC(=O)O)C(=O)N[C@@H](CCC(=O)O)C(=O)NCC(=O)N[C@@H](CC(N)=O)C(N)=O)[C@@H](C)O)NC(=O)[C@H](CC(N)=O)NC(=O)[C@H]([C@@H](C)O)NC(=O)[C@H](CC(C)C)NC1=O`, the IC50 (against GTPase KRas [11]; on GTPase KRas [12]; on GTPase KRas [13]; in [14]; at GTPase KRas [15]; at GTPase KRas [16]) was 5 µM each time.

For `CC[C@H](C)[C@H](NC(=O)CN1C/C=C\CCC(=O)N[C@@H](Cc2ccccc2)C(=O)N[C@@H](CCC(=O)O)C1=O)C(=O)N[C@@H](Cc1ccc(O)cc1)C(=O)N[C@@H](CCCNC(=N)N)C(=O)N[C@@H](CC(C)C)C(=O)N[C@@H](CCC(=O)O)C(=O)N[C@@H](CC(C)C)C(=O)N[C@@H](CC(C)C)C(=O)N[C@@H](CCCCN)C(=O)N[C@@H](C)C(=O)N[C@@H](CCC(=O)O)C(=O)N[C@@H](CCC(=O)O)C(=O)N[C@@H](C)C(=O)N[C@@H](CC(N)=O)C(N)=O`, the Kd amounted to 28 µM on SOS1-KRAS [17] and 158 µM on SOS1-KRAS [19]. In addition, the values for the IC50 against SOS1-KRAS [18] and against SOS1-KRAS [20] were 6.9 µM and 0.64 µM, respectively.

Consider `CC[C@H](C)[C@H](NC(=O)[C@H](Cc1c[nH]c2ccccc12)NC(C)=O)C(=O)NCC(=O)N[C@@H](CCCNC(=N)N)C(=O)N[C@@H](CC(C)C)C(=O)N[C@@H](CC(C)C)C(=O)N[C@H](C(=O)N[C@@]1(C)CCC/C=C\CCC[C@@](C)(C(=O)N[C@@H](CCCNC(=N)N)C(=O)N[C@@H](CC(N)=O)C(=O)NCC(=O)N[C@@H](CC(N)=O)C(N)=O)NC(=O)[C@H](CC(C)C)NC(=O)[C@H](CCCCNC(=N)N)NC(=O)[C@H](CCCNC(=N)N)NC1=O)[C@@H](C)O` (Ac-WIGRLLT[S5]R[hArg]L[S5]RNGN-NH2; staple (Z) 8-12), for which the Kd at GTPase HRas [21] and at GTPase KRas [22] was 3.92 µM each time. Further, at SOS1-KRAS [20], the IC50 turned out to be 0.016 µM.

For the compound `C=CS(=O)(=O)NCCCC(=O)NCCCC[C@H](NC(=O)[C@H](CC(C)C)NC(=O)C[C@@H](CC(=O)O)NC(=O)[C@H](CC(C)C)NC(=O)[C@H](CCCNC(=N)N)NC(=O)[C@H](Cc1ccc(O)cc1)NC(=O)CC(C)(CC)NC(=O)CN1C/C=C\CCCC(=O)N[C@@H](Cc2ccccc2)C(=O)N[C@@H](CCC(=O)O)C1=O)C(=O)N[C@@H](CCCCN)C(=O)NCCC(=O)N[C@@H](CCC(=O)O)C(=O)N[C@@H](CCC(=O)O)C(=O)N[C@@H](C)C(=O)N[C@@H](CC(N)=O)C(N)=O` (stereo not given in full), the Kd at GTPase HRas [23] was determined as 4.1 µM.
